Consider eight compounds from ChEMBL document CHEMBL4825755 (J Med Chem, 2021).

Data set [1] concerns the target PI3-kinase p110-delta/p85-alpha (Homo sapiens, UniProt O00329). The data set is described as follows: Inhibition of recombinant human N-terminal His6-tagged full length P110delta/full length untagged human p85alpha expressed in baculovirus infected Sf21 insect cells using PIP2 as substrate preincubated for 15 mins followed by substrate addition and measured after 60 mins by HTRF assay.

For data set [2], the target named is PI3-kinase p110-alpha/p85-alpha (Homo sapiens, UniProt P42336). As to the kind of experiment: Inhibition of recombinant human N-terminal His6-tagged full length P110alpha/full length untagged human p85alpha expressed in baculovirus infected Sf21 insect cells using PIP2 as substrate preincubated for 15 mins followed by substrate addition and measured after 60 mins by HTRF assay.
PI3-kinase p110-alpha/p85-alpha, sequence (P27986 whole entry): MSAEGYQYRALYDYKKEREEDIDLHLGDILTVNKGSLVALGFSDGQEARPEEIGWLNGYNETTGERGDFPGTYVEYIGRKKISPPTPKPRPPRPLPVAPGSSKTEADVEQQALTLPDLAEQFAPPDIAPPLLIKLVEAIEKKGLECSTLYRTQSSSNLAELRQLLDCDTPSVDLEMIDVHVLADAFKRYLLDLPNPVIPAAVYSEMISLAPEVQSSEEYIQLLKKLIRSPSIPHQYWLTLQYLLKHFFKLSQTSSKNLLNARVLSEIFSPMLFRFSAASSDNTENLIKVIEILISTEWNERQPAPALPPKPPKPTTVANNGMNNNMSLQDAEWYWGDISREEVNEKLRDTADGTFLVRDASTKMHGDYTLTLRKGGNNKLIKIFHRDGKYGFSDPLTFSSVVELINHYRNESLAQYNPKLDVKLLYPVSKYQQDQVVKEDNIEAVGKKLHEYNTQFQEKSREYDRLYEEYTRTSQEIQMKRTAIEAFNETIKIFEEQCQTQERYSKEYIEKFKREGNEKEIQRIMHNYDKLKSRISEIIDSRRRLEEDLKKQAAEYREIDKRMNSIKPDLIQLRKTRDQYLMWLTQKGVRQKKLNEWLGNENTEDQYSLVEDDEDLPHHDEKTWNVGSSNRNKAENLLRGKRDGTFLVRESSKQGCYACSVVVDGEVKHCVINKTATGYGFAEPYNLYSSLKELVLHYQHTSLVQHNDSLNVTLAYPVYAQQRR
PI3-kinase p110-alpha/p85-alpha, sequence (P42336 whole entry): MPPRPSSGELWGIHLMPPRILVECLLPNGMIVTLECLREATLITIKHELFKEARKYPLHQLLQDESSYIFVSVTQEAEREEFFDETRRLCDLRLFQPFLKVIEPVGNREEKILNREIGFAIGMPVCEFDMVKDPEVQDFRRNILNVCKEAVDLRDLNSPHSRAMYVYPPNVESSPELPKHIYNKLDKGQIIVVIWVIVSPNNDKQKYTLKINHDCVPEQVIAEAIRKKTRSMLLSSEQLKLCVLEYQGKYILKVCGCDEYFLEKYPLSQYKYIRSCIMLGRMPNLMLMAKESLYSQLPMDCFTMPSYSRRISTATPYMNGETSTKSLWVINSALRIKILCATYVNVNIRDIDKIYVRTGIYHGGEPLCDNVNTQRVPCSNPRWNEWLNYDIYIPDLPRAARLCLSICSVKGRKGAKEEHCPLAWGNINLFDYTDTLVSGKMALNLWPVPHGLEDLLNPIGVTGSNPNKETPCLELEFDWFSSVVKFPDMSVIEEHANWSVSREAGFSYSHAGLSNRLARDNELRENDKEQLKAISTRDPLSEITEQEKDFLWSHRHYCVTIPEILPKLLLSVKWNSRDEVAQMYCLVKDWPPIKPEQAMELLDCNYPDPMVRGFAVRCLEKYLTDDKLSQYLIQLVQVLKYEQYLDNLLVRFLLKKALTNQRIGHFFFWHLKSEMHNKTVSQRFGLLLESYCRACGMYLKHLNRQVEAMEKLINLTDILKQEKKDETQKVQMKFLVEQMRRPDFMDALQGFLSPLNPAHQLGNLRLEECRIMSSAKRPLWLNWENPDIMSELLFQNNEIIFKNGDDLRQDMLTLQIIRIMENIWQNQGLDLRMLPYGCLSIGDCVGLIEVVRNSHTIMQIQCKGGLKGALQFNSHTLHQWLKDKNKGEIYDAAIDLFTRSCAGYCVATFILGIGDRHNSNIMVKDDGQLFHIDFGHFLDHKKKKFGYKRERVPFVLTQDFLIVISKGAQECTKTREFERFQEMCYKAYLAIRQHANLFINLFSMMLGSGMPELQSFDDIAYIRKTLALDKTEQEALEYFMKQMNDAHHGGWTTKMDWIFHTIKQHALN

In data set [3] the target is PI3K p110 beta/p85 alpha (Homo sapiens, UniProt P42338). As to the kind of experiment: Inhibition of recombinant human N-terminal His6-tagged full length P110beta/full length untagged human p85alpha expressed in baculovirus infected Sf21 insect cells using PIP2 as substrate preincubated for 15 mins followed by substrate addition and measured after 60 mins by HTRF assay.
PI3K p110 beta/p85 alpha, sequence (P27986 whole entry): as the sequence (P27986 whole entry) above
PI3K p110 beta/p85 alpha, sequence (P42338 whole entry): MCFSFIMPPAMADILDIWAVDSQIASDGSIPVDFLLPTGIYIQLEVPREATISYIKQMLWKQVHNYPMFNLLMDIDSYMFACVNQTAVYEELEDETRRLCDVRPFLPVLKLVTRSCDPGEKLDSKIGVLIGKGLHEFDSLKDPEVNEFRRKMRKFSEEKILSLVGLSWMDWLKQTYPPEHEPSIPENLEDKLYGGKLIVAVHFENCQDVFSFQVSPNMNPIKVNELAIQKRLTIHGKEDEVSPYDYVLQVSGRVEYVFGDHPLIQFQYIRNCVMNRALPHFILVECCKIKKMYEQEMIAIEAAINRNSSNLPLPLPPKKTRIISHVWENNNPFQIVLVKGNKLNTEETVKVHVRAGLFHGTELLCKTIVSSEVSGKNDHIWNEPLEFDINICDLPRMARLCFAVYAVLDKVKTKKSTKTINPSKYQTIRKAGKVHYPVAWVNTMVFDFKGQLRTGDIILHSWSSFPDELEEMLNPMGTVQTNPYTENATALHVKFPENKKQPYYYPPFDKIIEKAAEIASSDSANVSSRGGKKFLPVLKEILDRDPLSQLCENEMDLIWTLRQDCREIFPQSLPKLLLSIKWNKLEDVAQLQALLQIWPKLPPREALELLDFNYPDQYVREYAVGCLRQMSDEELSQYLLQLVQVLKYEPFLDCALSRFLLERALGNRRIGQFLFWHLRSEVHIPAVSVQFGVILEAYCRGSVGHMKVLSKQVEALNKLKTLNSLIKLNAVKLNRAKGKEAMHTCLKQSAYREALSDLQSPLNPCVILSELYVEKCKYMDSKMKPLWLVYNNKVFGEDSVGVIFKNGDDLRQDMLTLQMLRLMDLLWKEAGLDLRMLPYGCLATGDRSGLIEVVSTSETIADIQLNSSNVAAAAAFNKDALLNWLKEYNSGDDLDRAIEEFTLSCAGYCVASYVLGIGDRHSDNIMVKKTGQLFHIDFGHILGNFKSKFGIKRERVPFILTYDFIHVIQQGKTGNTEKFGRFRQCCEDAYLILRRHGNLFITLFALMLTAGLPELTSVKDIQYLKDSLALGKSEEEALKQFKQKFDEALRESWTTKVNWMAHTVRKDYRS

Data set [4] addresses Phosphatidylinositol 4,5-bisphosphate 3-kinase catalytic subunit gamma isoform (Homo sapiens, UniProt P48736). As to the kind of experiment: Inhibition of recombinant human N-terminal His6-tagged full length P120gamma expressed in baculovirus infected Sf21 insect cells using PIP2 as substrate preincubated for 15 mins followed by substrate addition and measured after 60 mins by HTRF assay.

Data set [5] has as its target T1, Phosphatidylinositol 4,5-bisphosphate 3-kinase catalytic subunit delta isoform (Homo sapiens, UniProt O00329).
T1 sequence (O00329 whole entry): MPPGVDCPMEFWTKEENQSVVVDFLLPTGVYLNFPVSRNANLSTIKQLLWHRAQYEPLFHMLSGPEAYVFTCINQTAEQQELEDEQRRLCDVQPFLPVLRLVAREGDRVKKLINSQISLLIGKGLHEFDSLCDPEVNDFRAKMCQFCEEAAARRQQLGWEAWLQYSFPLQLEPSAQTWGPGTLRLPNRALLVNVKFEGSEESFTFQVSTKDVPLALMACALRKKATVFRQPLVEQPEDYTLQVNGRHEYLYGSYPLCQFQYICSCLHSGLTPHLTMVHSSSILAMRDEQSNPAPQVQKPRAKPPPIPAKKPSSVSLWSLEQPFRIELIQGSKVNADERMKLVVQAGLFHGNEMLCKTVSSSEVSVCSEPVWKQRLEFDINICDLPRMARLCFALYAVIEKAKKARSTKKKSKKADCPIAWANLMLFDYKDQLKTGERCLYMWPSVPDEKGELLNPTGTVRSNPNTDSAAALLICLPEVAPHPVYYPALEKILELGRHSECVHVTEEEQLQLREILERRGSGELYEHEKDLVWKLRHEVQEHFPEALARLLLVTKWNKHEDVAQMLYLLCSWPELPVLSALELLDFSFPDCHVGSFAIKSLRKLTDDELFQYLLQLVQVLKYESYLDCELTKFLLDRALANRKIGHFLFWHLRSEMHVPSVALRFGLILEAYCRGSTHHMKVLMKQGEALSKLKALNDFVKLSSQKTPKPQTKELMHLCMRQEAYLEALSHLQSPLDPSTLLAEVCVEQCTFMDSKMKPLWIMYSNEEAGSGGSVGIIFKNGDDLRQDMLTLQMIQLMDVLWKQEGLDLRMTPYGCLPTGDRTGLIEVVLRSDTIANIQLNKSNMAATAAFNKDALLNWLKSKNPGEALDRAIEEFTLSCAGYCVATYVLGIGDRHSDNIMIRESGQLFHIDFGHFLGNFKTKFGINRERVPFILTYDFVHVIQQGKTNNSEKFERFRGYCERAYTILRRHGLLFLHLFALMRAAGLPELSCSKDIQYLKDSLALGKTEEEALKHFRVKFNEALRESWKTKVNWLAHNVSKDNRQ
The data set is described as follows: Inhibition of PI3Kdelta in human whole blood assessed as reduction in cytostim-stimulated IFNgamma production preincubated for 1 hr followed by cytostim stimulation and measured after 20 hrs by electrochemiluminescence assay.

Data set [6] is described as follows: Lipophilicity, log D of compound by chromatographic method. In kind it is physicochemical.
The nature of data set [7]: Intrinsic clearance in Wistar Han rat liver microsomes at 0.5 uM measured up to 45 mins in presence of NADPH by LC-MS/MS analysis. The settings on record: read-out: CLH. In kind it is ADME, Microsome.
The nature of data set [8]: in vitro. The settings on record: human, pooled liver microsomes.
Description: Intrinsic clearance in pooled human liver microsomes at 0.5 uM measured up to 45 mins in presence of NADPH by LC-MS/MS analysis

Structures are written as SMILES.

Phosphatidylinositol 4,5-bisphosphate 3-kinase catalytic subunit gamma isoform, sequence (P48736 whole entry, canonical isoform): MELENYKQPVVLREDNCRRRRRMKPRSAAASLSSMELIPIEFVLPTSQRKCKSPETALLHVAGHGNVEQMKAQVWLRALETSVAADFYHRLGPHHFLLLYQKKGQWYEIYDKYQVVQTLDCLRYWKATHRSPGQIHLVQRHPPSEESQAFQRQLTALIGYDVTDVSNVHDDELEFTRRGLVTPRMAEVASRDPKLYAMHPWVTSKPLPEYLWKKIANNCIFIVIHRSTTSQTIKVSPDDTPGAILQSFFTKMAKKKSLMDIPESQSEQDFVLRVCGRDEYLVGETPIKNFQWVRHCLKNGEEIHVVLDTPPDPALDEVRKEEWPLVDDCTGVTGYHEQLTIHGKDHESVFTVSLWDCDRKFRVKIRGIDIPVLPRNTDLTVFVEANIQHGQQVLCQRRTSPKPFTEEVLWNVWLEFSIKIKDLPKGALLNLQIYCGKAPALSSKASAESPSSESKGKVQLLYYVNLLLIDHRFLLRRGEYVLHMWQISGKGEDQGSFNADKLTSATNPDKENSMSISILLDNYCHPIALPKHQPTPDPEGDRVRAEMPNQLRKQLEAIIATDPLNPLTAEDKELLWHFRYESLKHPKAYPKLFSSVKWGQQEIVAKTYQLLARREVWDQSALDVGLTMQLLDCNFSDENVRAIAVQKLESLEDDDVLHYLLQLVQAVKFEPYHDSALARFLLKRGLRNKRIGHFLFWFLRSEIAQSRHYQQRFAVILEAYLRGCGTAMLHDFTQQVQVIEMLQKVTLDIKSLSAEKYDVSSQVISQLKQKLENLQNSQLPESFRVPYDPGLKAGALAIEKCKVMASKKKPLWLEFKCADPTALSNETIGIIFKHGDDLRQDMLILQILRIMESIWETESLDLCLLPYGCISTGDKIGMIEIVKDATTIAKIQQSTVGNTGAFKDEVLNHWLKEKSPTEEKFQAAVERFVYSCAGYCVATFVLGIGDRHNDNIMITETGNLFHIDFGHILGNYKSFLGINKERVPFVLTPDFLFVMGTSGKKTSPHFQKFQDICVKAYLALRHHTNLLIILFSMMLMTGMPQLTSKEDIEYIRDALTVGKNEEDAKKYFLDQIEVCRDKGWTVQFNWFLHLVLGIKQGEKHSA
PI3-kinase p110-delta/p85-alpha, sequence (P27986 whole entry, one chain of several): as the sequence (P27986 whole entry) above

For `COc1ncc(C2=CCOCC2)cc1S(=O)(=O)Nc1cncc(-c2ccc(CN3CCN(C(C)C)CC3)cc2)c1`, the IC50 was 0.316 nM in data set [1]; 398 nM in data set [2]; 794 nM in data set [3]; 2510 nM in data set [4]; 12.6 nM in data set [5]. In data set [1], the Ki is 0.01 nM. The same compound came in with a chromatographic logD in data set [6] of 2.9. Moreover, the CLint scaled at 0.5 µM in data set [7] is 0.0366 L/h/kg. The same compound had a CLint scaled at 0.75 h, 0.5 µM in data set [8] of 0.137 L/h/kg.
`COc1ncc(N2CCOCC2)cc1S(=O)(=O)Nc1ccnc(-c2ccc(CN3CCN(C(C)(C)C)CC3)cc2F)c1`: the IC50 is 0.794 nM in data set [1]; 794 nM in data set [2]; 3980 nM in data set [3]; 2000 nM in data set [4]; 2.51 nM in data set [5]. Moreover, in data set [1], the inhibitory constant (Ki) was 0.0251 nM. The compound further gave a chromatographic logD in data set [6] of 1.9. The CLint scaled at 0.5 µM in data set [7] was less than 0.0222 L/h/kg. This compound also registered a CLint scaled at 0.75 h, 0.5 µM in data set [8] of less than 0.0186 L/h/kg.
Turning to `COc1ncc(N2CCOCC2)cc1S(=O)(=O)Nc1ccnc(-c2ccc(CN3CCN(C(C)C)CC3)cc2)c1`, the IC50 in data set [1] was 1.26 nM; in data set [2] it was 2510 nM; in data set [3], 10000 nM; in data set [4] it was 5010 nM; in data set [5] it was 12.6 nM. Besides, the Ki in data set [1] is 0.0398 nM. The compound also returned a chromatographic logD in data set [6] of 1.4. The CLint scaled at 0.5 µM in data set [7] was less than 0.0276 L/h/kg. Further, the CLint scaled at 0.75 h, 0.5 µM in data set [8] was less than 0.024 L/h/kg.
With `COc1ncc(C2=CCOCC2)cc1S(=O)(=O)Nc1cncc(-c2ccc(CN3C[C@@H](C)N(C)[C@@H](C)C3)cc2)c1`, the IC50 in data set [1] was 0.501 nM; in data set [2] it was 316 nM; in data set [3], 2510 nM; in data set [4] it was 5010 nM; in data set [5], 1.26 nM. Also, the Ki in data set [1] was 0.0158 nM. Also, in data set [6], the chromatographic logD came out at 3.1. In addition, the CLint scaled at 0.5 µM in data set [7] stood at 0.0522 L/h/kg. For the same compound, in data set [8], the CLint scaled at 0.75 h, 0.5 µM came to 0.182 L/h/kg.
For the compound `COc1ncc(N2CCOCC2)cc1S(=O)(=O)Nc1ccnc(-c2ccc(CN3C[C@@H](C)O[C@@H](C)C3)cc2F)c1`, the concentration for half-maximal inhibition (IC50) in data set [1] was 1 nM; in data set [2], 1260 nM; in data set [3], 1580 nM; in data set [4], 251 nM; in data set [5], 7.94 nM. Also, the Ki in data set [1] is 0.0316 nM. In data set [6], this compound came in with a chromatographic logD of 3.9. The CLint scaled at 0.5 µM in data set [7] came to 0.0354 L/h/kg. The CLint scaled at 0.75 h, 0.5 µM in data set [8] came out at 0.0522 L/h/kg.
As to `COc1ncc(C2=CCOCC2)cc1S(=O)(=O)Nc1cncc(-c2ccc(CN3CCCC3)cc2)c1`, the IC50 in data set [1] is 5.01 nM; in data set [2] it was 5010 nM; in data set [3], 631 nM; in data set [4], 10000 nM; in data set [5], 31.6 nM. Besides, in data set [6], the chromatographic logD came to 2.2. Besides, in data set [7], the CLint scaled at 0.5 µM amounted to 0.0528 L/h/kg. Moreover, the CLint scaled at 0.75 h, 0.5 µM in data set [8] was 0.0432 L/h/kg.
In the case of `COc1ncc(C2=CCOCC2)cc1S(=O)(=O)Nc1cncc(-c2ccc(CN3C[C@@H](C)O[C@@H](C)C3)cc2)c1`, the IC50 in data set [1] is 0.398 nM; in data set [2], 1000 nM; in data set [3], 631 nM; in data set [4] it was 794 nM; in data set [5], 25.1 nM. The Ki in data set [1] is 0.01 nM. In addition, in data set [6], the chromatographic logD was 5.3. Besides, the CLint scaled at 0.5 µM in data set [7] is 1.14 L/h/kg. In addition, in data set [8], the CLint scaled at 0.75 h, 0.5 µM came out at 0.772 L/h/kg.
`COc1ncc(N2CCOCC2)cc1S(=O)(=O)Nc1cncc(-c2ccc(CN3CCN(C(C)C)CC3)cc2)c1`: the IC50 in data set [1] is 2.51 nM; in data set [2], 1260 nM; in data set [3] it was 2510 nM; in data set [4] it was 7940 nM; in data set [5] it was 20 nM. Also, in data set [1], the Ki is 0.0794 nM. In data set [6], the chromatographic logD worked out at 2.3. In data set [7], the CLint scaled at 0.5 µM was less than 0.0276 L/h/kg. Also, the CLint scaled at 0.75 h, 0.5 µM in data set [8] came to 0.0426 L/h/kg.
